Earlier results, collected in US20030059487A1, “Composition and method for the treatment of hypercholesterolemia and hyperlipidemia in mammals” (priority 2001, published 2003).

Conditions: background statement on Lipitor

CC(C)c1c(C(=O)Nc2ccccc2)c(-c2ccccc2)c(-c2ccc(F)cc2)n1CC[C@@H](O)C[C@@H](O)CC(=O)O [atorvastatin]
raises HDL cholesterol: 5 to 10% | reduces LDL: 40 to 60% | reduces triglycerides: 20 to 40%
